This note sets out measurements from US8664243B2, “Sulfonamide compound and crystal thereof” (Asahi Kasei Pharma Corporation, priority 2007, dated 2014).

Holding throughout (assay type): physicochemical
The nature of data set [1]: Hygroscopicity Test 2 (25° C. and 84% RH; free base, salts and salt mixtures). As to conditions: for Appearance / Water content / Purity: 25° C. and 84% RH, dark; for Purity: HPLC. Here is the method:
(§1) Hygroscopicity of Compound 1 or the substance in the form of a salt can be evaluated by putting a sample on a glass weighing dish, storing the dish in a dark place for a given period of time in an open state at a temperature of 25 to 40° C. under a humidification condition of about 75 to 94% relative humidity, and then observing or measuring appearance, purity, water content and the like of Compound 1 or the substance in the form of a salt. Increase of water content before and after storage especially serves as an important hygroscopic index. For example, the evaluation is preferably performed after storage conditions of 25° C. and 84% RH. • High performance liquid chromatography apparatus: LC-10A Series (Shimadzu) or Agilent 1100 series (Agilent Technologies) • Solution concentration: 500 μg/ml • Injection: 10 μl • Detector: Ultraviolet absorptiometer (measurement wavelength: 245 nm) • Column: XBridge Shield RP18 5 μm, internal diameter: 4.6 mm, length: 15 cm (Waters) • Column temperature: Constant temperature around 40° C. • Mobile phase A: 20 mmol/l Sodium phosphate buffer (pH 7.0) • Mobile phase B: Acetonitrile • Liquid feeding program: A concentration gradient was formed by changing the mixing ratio of the mobile phase A and the mobile phase B as shown in Table 1. • Flow rate: 1.0 ml/minute • Water content measurement apparatus: AQ-7 (Hiranuma Sangyo) • Sample amount: 5 mg • Anolyte: Aqualyte RS (Sigma-Aldrich) • Catholyte: Aqualyte CN (Sigma-Aldrich) Compound 1 obtained by a method similar to the method described in Example 1 (two kinds of lots), the monohydrochloride obtained by the method described in Example 3, the dihydrochloride, and mixtures of the monohydrochloride and the dihydrochloride at ratios of 9:1, 8:2, 6:4, 4:6 and 2:8 were weighed on a glass weighing dish in an amount of each 40 mg, and each sample was stored in a dark place at 25° C. and 84% RH for 2 to 4 weeks. After the storage, appearance was evaluated by visual inspection. Further, purity was measured under the conditions of Test Example 7, and water content was measured under the conditions of Test Example 8.

The nature of data set [2]: Thermal stability test (sealed glass vial, dark place, 60° C.). As to conditions: for Appearance / Water content / Purity: 60° C., dark, sealed vial; for Purity: HPLC. Here is the method: Thermal stability of Compound 1 or the substance in the form of a salt can be evaluated by, for example, sealing a sample in a glass vial or the like, storing the vial under a severe temperature condition such as 40 to 80° C. in a dark place for a given period of time, and then observing or measuring appearance, purity, water content and the like of Compound 1 or the substance in the form of a salt. Change of purity before and after storage especially serves as an important index of thermal stability. For example, the evaluation is preferably performed under a storage condition of 60° C. • High performance liquid chromatography apparatus: LC-10A Series (Shimadzu) or Agilent 1100 series (Agilent Technologies) • Solution concentration: 500 μg/ml • Injection: 10 μl • Detector: Ultraviolet absorptiometer (measurement wavelength: 245 nm) • Column: XBridge Shield RP18 5 μm, internal diameter: 4.6 mm, length: 15 cm (Waters) • Column temperature: Constant temperature around 40° C. • Mobile phase A: 20 mmol/l Sodium phosphate buffer (pH 7.0) • Mobile phase B: Acetonitrile • Liquid feeding program: A concentration gradient was formed by changing the mixing ratio of the mobile phase A and the mobile phase B as shown in Table 1. • Flow rate: 1.0 ml/minute • Water content measurement apparatus: AQ-7 (Hiranuma Sangyo) • Sample amount: 5 mg • Anolyte: Aqualyte RS (Sigma-Aldrich) • Catholyte: Aqualyte CN (Sigma-Aldrich) The monohydrochloride obtained by the method described in Example 3, the monohydrobromide obtained by the method described in Example 4, and the dihydrochloride as a control were weighed in a glass vial in an amount of 40 mg each, and the glass vial was sealed. Each sample was stored in a dark place at 60° C. for 2 to 4 weeks, and after the storage, appearance was evaluated by visual inspection. Further, purity was measured under the conditions of Test Example 7, and water content was measured under the conditions of Test Example 8.

The nature of data set [3]: Hygroscopicity Test 1 (open glass weighing dish, dark place, 25° C. and 84% RH). As to conditions: for Appearance / Water content / Purity: 25° C. and 84% RH, dark, open; for Purity: HPLC. Here is the method: as §1, with “(Sigma-Aldrich) The” for “(Sigma-Aldrich) Compound 1 obtained by a method similar to the method described in Example 1 (two kinds of lots), the”, “the monohydrobromide obtained by” for “the dihydrochloride, and mixtures of”, “the method described in Example 4,” for “the monohydrochloride”, “dihydrochloride as a control” for “dihydrochloride at ratios of 9:1, 8:2, 6:4, 4:6 and 2:8”, “of” for “of each”, “40 mg each,” for “40 mg,”

Data set [4] is described as follows: Measurement of water content (coulometric titration method). As to conditions: as prepared, sample 5 mg. From the text: For evaluation of purity of Compound 1 or the substance in the form of a salt, the area percentage method based on HPLC is convenient. For evaluation of water content of Compound 1 or the substance in the form of a salt, the volumetric titration method, the coulometric titration method described in Japanese Pharmacopoeia, General Test Methods, “Water Determination”, the loss on drying test and the like can be used. When sample weight is small, the coulometric titration method can be preferably chosen.

Setting [5] is: storage for two weeks at 25° C. and 84% RH.
[6] abbreviates: after storage at 60° C. for 4 weeks.
The mark [7] stands for this setting: after storage at 25° C. and 84% RH for 4 weeks.

In the case of `CN[C@H]1CCN(S(=O)(=O)c2cccc3cncc(Cl)c23)C1` [Compound 1, (S)-1-(4-chloro-5-isoquinolinesulfonyl)-3-(methylamino)pyrrolidine], the Appearance entry in data set [1] (after 2 weeks), in data set [1] (after 4 weeks) and in data set [1] (before storage) was “Slightly” throughout. Besides, the Water content amounted to 5.7% in data set [1] (after 2 weeks, listed as Compound 1 (Lot 1)); 7.6% in data set [1] (after 2 weeks, listed as Compound 1 (Lot 2)); 8.1% in data set [1] (after 4 weeks, listed as Compound 1 (Lot 1)); 9.1% in data set [1] (after 4 weeks, listed as Compound 1 (Lot 2)); 0.9% in data set [1] (before storage, listed as Compound 1 (Lot 1)); 1.7% in data set [1] (before storage, listed as Compound 1 (Lot 2)). For the same compound, the Purity in data set [1] (after 2 weeks), in data set [1] (after 4 weeks) and in data set [1] (before storage) was 99.9% each time. Besides, the Moisture absorption entry in data set [1] (both lots, after storage at 25° C. and 84% RH for 4 weeks) is recorded as “further moisture absorption”.
For `CN[C@H]1CCN(S(=O)(=O)c2cccc3cncc(Cl)c23)C1.Cl.Cl` [Dihydrochloride, (S)-1-(4-chloro-5-isoquinolinesulfonyl)-3-(methylamino)pyrrolidine dihydrochloride, reference compound], the Appearance entry in data set [1] (after 2 weeks) is given as “Pale”; in data set [1] (before storage), “White”; in data set [2] (after 2 weeks), “Pale brown”; in data set [2] (before storage), “White”; in data set [3] (after 2 weeks), “Brown”; in data set [3] (before storage) it was “White”. The Water content in data set [1] (after 2 weeks) is listed as 19.8%; in data set [1] (before storage) it was 5.2%; in data set [2] (after 2 weeks), 2.93%; in data set [2] (before storage) it was 3.76%; in data set [3] (after 2 weeks), 15.24%; in data set [3] (before storage), 3.76%. In addition, the Purity in data set [1] (after 2 weeks) amounted to 99.9%; in data set [1] (before storage), 100.0%; in data set [2] (after 2 weeks), 99.5%; in data set [2] (before storage), 98.1%; in data set [3] (after 2 weeks), 99.3%; in data set [3] (before storage) it was 98.1%. Also, the Change of appearance result was “change of appearance” in data set [2] (after storage at 60° C. for 2 weeks, dihydrochloride); “apparent change of appearance” in data set [3] (after storage at 25° C. and 84% RH for 2 weeks, dihydrochloride). Also, the “Changes in physicochemical properties” value in data set [2] (stability test at 60° C. for two weeks) and in data set [3] (setting [5]) was “changes in physicochemical properties” each time. Moreover, the Moisture absorption entry in data set [3] (after storage at 25° C. and 84% RH for 2 weeks) is recorded as “marked moisture absorption”. The Hygroscopicity entry in data set [3] (setting [5]) is on record as “remarkable hygroscopicity”.
As for `Br.CN[C@H]1CCN(S(=O)(=O)c2cccc3cncc(Cl)c23)C1` [Monohydrobromide, (S)-1-(4-chloro-5-isoquinolinesulfonyl)-3-(methylamino)pyrrolidine monohydrobromide], the Appearance result in data set [2] (after 2 weeks), in data set [2] (after 4 weeks), in data set [2] (before storage), in data set [3] (after 2 weeks), in data set [3] (after 4 weeks) and in data set [3] (before storage) was “White” each time. Besides, the Water content in data set [2] (after 2 weeks) came out at 0.05%; in data set [2] (after 4 weeks), 0.05%; in data set [2] (before storage), 0.14%; in data set [4], 0.14%; in data set [3] (after 2 weeks), 0.05%; in data set [3] (after 4 weeks) it was 0.05%. The compound also returned a Water content in data set [3] (before storage) of 0.14%. Also, the Purity in data set [2] (after 2 weeks) worked out at 99.9%; in data set [2] (after 4 weeks), 99.8%; in data set [2] (before storage) it was 99.7%; in data set [3] (after 2 weeks), 99.9%; in data set [3] (after 4 weeks) it was 99.7%; in data set [3] (before storage), 99.7%. Further, in data set [2] (Test Example 9, 60° C.), the “Thermal stability compared with the dihydrochloride” value is given as “more satisfactory thermal stability”. The Change of appearance result in data set [2] (setting [6]) and in data set [3] (setting [7]) was “no change of appearance” in each case. In addition, the Degradation of purity entry in data set [2] (setting [6]) and in data set [3] (setting [7]) was “no degradation of purity” each time. Besides, the “Hygroscopicity compared with the dihydrochloride” value in data set [3] (Test Example 10, 25° C. and 84% RH) is recorded as “remarkably lower hygroscopicity”. Moreover, the “Increase of water content” value in data set [3] (setting [7]) was “no substantial increase of water content”.
